This note sets out measurements from patent publication US4383113A, “Agricultural sulfonamides” (E. I. Du Pont de Nemours and Company, priority 1981, dated 1983).

In assay [1] the test system is purple nutsedge. The assay is described as follows: Test G soil incorporated. In kind it is in vivo, Cyperus rotundus. To be noted: .032 kg/ha, low OM. The text has this: (§1) Purple nutsedge tubers (Cyperus rotundus, L.) were planted about 2 cm deep in Fallsington silt loam (about 1% organic matter from Delaware) and in Flanagan loam (about 4% organic matter) from Illinois. Five tubers were planted in each 10 cm diameter plastic pot. Treatments recorded in Table XVII were applied in three different ways, i.e., soil surface spray, tuber/soil spray and soil incorporated. In surface sprays, the material was sprayed on the firmed soil surface after planting, but before nutsedge emergence. In tuber/soil sprays, the material was sprayed on exposed tubers and subtending soil before the tubers were covered with untreated soil. Soil incorporated treatments were mixed in the covering soil.
(§2) Immediately after treating, the treated pots were misted with about 0.3 cm of water over a 90 minute period and placed in the greenhouse.

Assay [2] relates to purple nutsedge. Nature of the assay: Test G surface spray. To be noted: high OM. In kind it is in vivo, Cyperus rotundus.
Text: as §1, §2

Another assay has as its system nutsedge. Nature of the assay: Test E post-emergence. In kind it is in vivo, Cyperus rotundus. The source says:
(§3) The containers used were 25 cm diameter plastic pots filled with fertilized and limed Fallsington silt loam. Plantings of the following weed species were made twice, at a 10-day interval: mustard (Brassica arvensis), cocklebur (Xanthium spp.), morningglory (Ipomoea hederacea), cassia (Cassia tora), velvetleaf (Abutilon theophrasti), alfalfa (used as an indicator species), kochia (Kochia scoparia), sesbania (Sesbania exaltata), Russian thistle (Salsola kali), jimsonweed (Datura stramonium),and nutsedge (Cyperus rotundus). In addition, wheat and barley were planted in separate 15 cm diameter plastic pots filled with the same soil at the time of the early planting only. All plantings were treated with the test chemicals dissolved in a non-phytotoxic solvent immediately following completion of the second planting operation. At this time, the wheat was around 15-17.5 cm tall and the barley 12.5 to 15 cm tall, both in the 2-leaf stage of growth. The weed species of the earliest planting date were from 2.5 to 12.5 cm tall. The rates of application selected were 0.004, 0.007, 0.015 and 0.030 kg/ha for the weed phase and 0.12, 0.25 and 0.50 kg/ha for wheat and barley. The post-emergence part of this test was visually rated for plant response 21 days after treatment, and the pre-emergence part 28 days after treatment.

The subject of another assay is cocklebur. Nature of the assay: Test E post-emergence. In kind it is in vivo, Xanthium spp.
Text: as §3

The next assay relates to mustard. The assay is described as follows: Test E post-emergence. The class given is in vivo, Brassica arvensis.
Text: as §3

Another assay has as its system wheat. The assay is described as follows: Test E post-emergence. In kind it is in vivo. As to conditions: 1/2 kg/ha.
Text: as §3

The test system of another assay is barley. The assay is described as follows: Test E post-emergence. In kind it is in vivo. To be noted: 1/2 kg/ha.
Text: as §3

On to `COC(=O)c1ccccc1S(=O)(=O)NC(=O)Nc1nc(OC)cc(OC)n1` [drawing 607], for which the “response rating after 4 weeks” value with purple nutsedge [1] was 10C; in the assay with purple nutsedge [2] (.008 kg/ha) it was 0; in the assay on purple nutsedge [2] (.032 kg/ha) it was 10C.
As to `COc1nc(NC(=O)NS(=O)(=O)c2ccccc2C(=O)OC(C)C)nc(OC)n1` [drawing 589], the response rating with nutsedge (1/32 kg/ha) is 10G; in the assay on cocklebur (1/32 kg/ha) it was 10C; in the assay with cocklebur (1/64 kg/ha) it was 10C; in the assay on cocklebur (1/128 kg/ha), 10C; with cocklebur (1/256 kg/ha), 10C; in the assay on mustard (1/32 kg/ha), 10C. Also, the response rating with mustard (1/64 kg/ha) came to 10C; with mustard (1/128 kg/ha), 10C; in the assay with mustard (1/256 kg/ha) it was 10C; with wheat, 2G.
Consider `COc1nc(C)nc(NC(=O)NS(=O)(=O)c2ccccc2C(=O)OC(C)C)n1` [drawing 590], for which the response rating in the assay with nutsedge (1/32 kg/ha) is on record as 10C; in the assay with nutsedge (1/256 kg/ha), 3G; in the assay on cocklebur (1/32 kg/ha), 10C; in the assay with cocklebur (1/64 kg/ha), 10C; in the assay with cocklebur (1/128 kg/ha), 10C; with cocklebur (1/256 kg/ha), 10C. Besides, the response rating with mustard (1/32 kg/ha) is given as 10C; in the assay with mustard (1/64 kg/ha), 10C; with mustard (1/128 kg/ha), 10C; in the assay with mustard (1/256 kg/ha), 10C; in the assay on barley, 5G.
